Data set [1] deals with Hepatotoxicity.
In data set [2] the test system is Hepatotoxicity. The source holds these as a separate data set.
Data set [3] concerns Hepatotoxicity. The source holds these as a separate data set.
Data set [4] concerns Hepatotoxicity. This is another data set of the same source.
Data set [5] deals with Hepatotoxicity. This is another data set of the same source.
Data set [6] concerns Hepatotoxicity. This is another data set of the same source.
Data set [7] relates to Hepatotoxicity. The source holds these as a separate data set.
Data set [8] relates to Hepatotoxicity. The source holds these as a separate data set.
For data set [9], the system named is Hepatotoxicity. This is another data set of the same source.
In data set [10] the test system is Hepatotoxicity. This is another data set of the same source.
For data set [11], the system named is Hepatotoxicity. This is another data set of the same source.
The subject of data set [12] is Hepatotoxicity. This is another data set of the same source.
Data set [13] has as its system Hepatotoxicity. The source holds these as a separate data set.
Data set [14] has as its system Hepatotoxicity. The source holds these as a separate data set.
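Wherever HepSE Combined Scores is given: combined hepatic side effect score as listed in the training data of the Drug Induced Liver Injury Prediction System (DILIps).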
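Wherever HepSE bilirubinemia is given: bilirubinemia hepatic side effect score drawn from the DILIps training data, a prediction system for drug-induced liver injury; call rule not given here.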
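Wherever HepSE cholecystitis is given: Cholecystitis-related hepatic side effect score drawn from the DILIps (drug-induced liver injury prediction) training data set; call rule not given here.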
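Wherever HepSE cholelithiasis is given: hepatic side effect score for cholelithiasis, drawn from the DILIps training data for predicting drug-induced liver injury; call rule not given here.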
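Wherever HepSE cirrhosis is given: cirrhosis hepatic side effect score taken from the DILIps (drug-induced liver injury prediction) training set; call rule not given here.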
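Wherever HepSE elevated liver function tests is given: hepatic side effect score for raised liver function tests, as recorded in the DILIps training set used for predicting drug-induced liver injury.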
Wherever HepSE hepatic failure is given: call rule not given here.
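Wherever HepSE hepatic necrosis is given: score of hepatic side effects for hepatic necrosis, drawn from the training data of DILIps, a prediction system for drug-induced liver injury; call rule not given here.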
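Wherever HepSE hepatitis is given: Hepatitis-related hepatic side effect score taken from the training data of DILIps, a prediction system for drug-induced liver injury; call rule not given here.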
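Wherever HepSE hepatomegaly is given: hepatic side effect score for hepatomegaly, taken from the training set of the DILIps drug-induced liver injury prediction system; call rule not given here.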
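Wherever HepSE jaundice is given: Jaundice-related hepatic side-effect score drawn from the training data of the DILIps (drug-induced liver injury prediction system); call rule not given here.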
Wherever HepSE liver disease is given: call rule not given here.
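Wherever HepSE liver fatty is given: hepatic side effect score for fatty liver, taken from the DILIps training set for predicting drug-induced liver injury; call rule not given here.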
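Wherever HepSE liver function tests abnormal is given: hepatic side effect score taken from the DILIps (drug-induced liver injury prediction system) training data, here covering abnormal liver function test findings.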

With `C[C@]12C=CC(=O)C=C1CC[C@@H]1[C@@H]2C(=O)C[C@@]2(C)[C@H]1CC[C@]2(O)C(=O)CO` [PREDNISONE], the HepSE_hepatic necrosis in data set [1] is listed as 0. This compound showed a HepSE_cirrhosis in data set [2] of 0. In [3], this compound had a HepSE_bilirubinemia of 0. The HepSE_liver disease in data set [4] worked out at 0. The “HepSE_elevated liver function tests” value in data set [5] was 0. In [6], this compound came in with a HepSE_liver fatty of 0. For the same compound, the “HepSE_Combined Scores” value in [7] came to 0. In addition, the HepSE_jaundice in data set [8] came to 0. Moreover, the HepSE_hepatic failure in data set [9] is 0. The compound also had a HepSE_cholecystitis in data set [10] of 0. For the same compound, in data set [11], the “HepSE_liver function tests abnormal” value is 0. The HepSE_hepatitis in data set [12] was 0. This compound yielded a HepSE_cholelithiasis in data set [13] of 0. The same compound displayed a HepSE_hepatomegaly in [14] of 0.
`COc1cc(NC(C)CCCN)c2ncccc2c1` (stereo not given) [PRIMAQUINE] returned a HepSE_hepatic necrosis in [1] of 0. This compound came in with a HepSE_cirrhosis in data set [2] of 0. The compound also returned a HepSE_bilirubinemia in data set [3] of 0. Further, the HepSE_liver disease in data set [4] turned out to be 0. Besides, in [5], the “HepSE_elevated liver function tests” value was found to be 0. Further, the HepSE_liver fatty in [6] was found to be 0. Further, the “HepSE_Combined Scores” value in data set [7] amounted to 0. In addition, the HepSE_jaundice in [8] is on record as 0. The compound further returned a HepSE_hepatic failure in data set [9] of 0. In [10], this compound displayed a HepSE_cholecystitis of 0. Besides, the “HepSE_liver function tests abnormal” value in data set [11] turned out to be 0. This compound had a HepSE_hepatitis in [12] of 0. In [13], this compound came in with a HepSE_cholelithiasis of 0. In data set [14], this compound displayed a HepSE_hepatomegaly of 0.
`CCC1(c2ccccc2)C(=O)NCNC1=O` [PRIMIDONE] gave a HepSE_hepatic necrosis in [1] of 0. The compound further came in with a HepSE_cirrhosis in data set [2] of 0. In data set [3], this compound came in with a HepSE_bilirubinemia of 0. The compound also yielded a HepSE_liver disease in [4] of 0. Moreover, the “HepSE_elevated liver function tests” value in data set [5] worked out at 0. Moreover, the HepSE_liver fatty in data set [6] is 0. Besides, the “HepSE_Combined Scores” value in data set [7] is reported as 0. For the same compound, the HepSE_jaundice in [8] turned out to be 0. In addition, the HepSE_hepatic failure in data set [9] turned out to be 0. This compound also yielded a HepSE_cholecystitis in data set [10] of 0. In [11], the “HepSE_liver function tests abnormal” value is 0. In data set [12], this compound gave a HepSE_hepatitis of 0. Besides, the HepSE_cholelithiasis in data set [13] stood at 0. The compound also had a HepSE_hepatomegaly in data set [14] of 0.
In the case of `CCCN(CCC)S(=O)(=O)c1ccc(C(=O)O)cc1` [PROBENECID], the HepSE_hepatic necrosis in data set [1] was 1. In addition, the HepSE_cirrhosis in data set [2] came to 0. In addition, the HepSE_bilirubinemia in data set [3] came out at 0. For the same compound, the HepSE_liver disease in [4] is on record as 0. Further, the “HepSE_elevated liver function tests” value in data set [5] is 0. Besides, in data set [6], the HepSE_liver fatty amounted to 0. Also, the “HepSE_Combined Scores” value in data set [7] came out at 1. The compound also came in with a HepSE_jaundice in data set [8] of 0. Moreover, in data set [9], the HepSE_hepatic failure is listed as 0. The compound also had a HepSE_cholecystitis in [10] of 0. The “HepSE_liver function tests abnormal” value in data set [11] stood at 0. In data set [12], this compound came in with a HepSE_hepatitis of 0. For the same compound, the HepSE_cholelithiasis in data set [13] was found to be 0. In data set [14], this compound came in with a HepSE_hepatomegaly of 0.
`CCN(CC)CCNC(=O)c1ccc(N)cc1` [PROCAINAMIDE] returned a HepSE_hepatic necrosis in [1] of 0. The HepSE_cirrhosis in [2] turned out to be 0. The compound also gave a HepSE_bilirubinemia in data set [3] of 0. This compound returned a HepSE_liver disease in [4] of 0. Moreover, the “HepSE_elevated liver function tests” value in [5] was found to be 0. For the same compound, the HepSE_liver fatty in data set [6] was 0. In addition, the “HepSE_Combined Scores” value in data set [7] is on record as 2. This compound showed a HepSE_jaundice in [8] of 0. In data set [9], this compound yielded a HepSE_hepatic failure of 1. In [10], the HepSE_cholecystitis came out at 0. Moreover, the “HepSE_liver function tests abnormal” value in data set [11] came to 0. In addition, the HepSE_hepatitis in data set [12] is given as 0. In data set [13], this compound yielded a HepSE_cholelithiasis of 0. The compound also showed a HepSE_hepatomegaly in data set [14] of 1.
The compound `CCN(CC)CCOC(=O)c1ccc(N)cc1` [PROCAINE] returned a HepSE_hepatic necrosis in [1] of 0. In addition, the HepSE_cirrhosis in [2] is given as 0. The compound further displayed a HepSE_bilirubinemia in data set [3] of 0. This compound also displayed a HepSE_liver disease in data set [4] of 0. Moreover, the “HepSE_elevated liver function tests” value in [5] is recorded as 0. For the same compound, the HepSE_liver fatty in [6] turned out to be 0. In addition, in [7], the “HepSE_Combined Scores” value is recorded as 0. Also, the HepSE_jaundice in data set [8] is 0. In data set [9], the HepSE_hepatic failure was 0. This compound also displayed a HepSE_cholecystitis in data set [10] of 0. In addition, the “HepSE_liver function tests abnormal” value in data set [11] was 0. Further, the HepSE_hepatitis in data set [12] is on record as 0. Moreover, in [13], the HepSE_cholelithiasis was 0. This compound had a HepSE_hepatomegaly in data set [14] of 0.
Turning to `CNNCc1ccc(C(=O)NC(C)C)cc1` [PROCARBAZINE], the HepSE_hepatic necrosis in data set [1] is given as 0. The HepSE_cirrhosis in [2] turned out to be 0. The compound also gave a HepSE_bilirubinemia in data set [3] of 0. The compound also had a HepSE_liver disease in data set [4] of 0. Further, the “HepSE_elevated liver function tests” value in data set [5] was 0. This compound gave a HepSE_liver fatty in data set [6] of 0. In data set [7], the “HepSE_Combined Scores” value is listed as 1. In data set [8], this compound returned a HepSE_jaundice of 1. In data set [9], the HepSE_hepatic failure is on record as 0. This compound also came in with a HepSE_cholecystitis in data set [10] of 0. Also, in [11], the “HepSE_liver function tests abnormal” value is on record as 0. In data set [12], this compound showed a HepSE_hepatitis of 0. In [13], this compound registered a HepSE_cholelithiasis of 0. The same compound registered a HepSE_hepatomegaly in data set [14] of 0.
`CN1CCN(CCCN2c3ccccc3Sc3ccc(Cl)cc32)CC1` [PROCHLORPERAZINE]: the HepSE_hepatic necrosis in [1] is recorded as 0. The compound further showed a HepSE_cirrhosis in [2] of 0. Moreover, in [3], the HepSE_bilirubinemia worked out at 0. In data set [4], the HepSE_liver disease was found to be 0. Also, the “HepSE_elevated liver function tests” value in [5] was 0. The same compound yielded a HepSE_liver fatty in [6] of 0. The “HepSE_Combined Scores” value in data set [7] is 1. Moreover, the HepSE_jaundice in data set [8] was determined as 1. In data set [9], this compound registered a HepSE_hepatic failure of 0. The same compound yielded a HepSE_cholecystitis in data set [10] of 0. Besides, the “HepSE_liver function tests abnormal” value in data set [11] is listed as 0. Moreover, the HepSE_hepatitis in data set [12] came out at 0. Moreover, in data set [13], the HepSE_cholelithiasis is 0. In [14], this compound came in with a HepSE_hepatomegaly of 0.
`OC(CCN1CCCC1)(c1ccccc1)C1CCCCC1` (stereo not given) [PROCYCLIDINE] showed a HepSE_hepatic necrosis in data set [1] of 0. Moreover, the HepSE_cirrhosis in data set [2] stood at 0. The HepSE_bilirubinemia in [3] was 0. The compound also came in with a HepSE_liver disease in data set [4] of 0. Besides, the “HepSE_elevated liver function tests” value in data set [5] amounted to 0. Besides, the HepSE_liver fatty in data set [6] turned out to be 0. For the same compound, in data set [7], the “HepSE_Combined Scores” value stood at 0. For the same compound, in data set [8], the HepSE_jaundice amounted to 0. The compound also gave a HepSE_hepatic failure in data set [9] of 0. Further, the HepSE_cholecystitis in data set [10] amounted to 0. For the same compound, the “HepSE_liver function tests abnormal” value in data set [11] is 0. Moreover, the HepSE_hepatitis in data set [12] turned out to be 0. The compound further showed a HepSE_cholelithiasis in data set [13] of 0. The compound further had a HepSE_hepatomegaly in data set [14] of 0.
In turn, `CC(=O)[C@H]1CC[C@H]2[C@@H]3CCC4=CC(=O)CC[C@]4(C)[C@H]3CC[C@]12C` [PROGESTERONE] registered a HepSE_hepatic necrosis in data set [1] of 1. This compound showed a HepSE_cirrhosis in [2] of 0. Further, the HepSE_bilirubinemia in [3] is given as 0. The HepSE_liver disease in data set [4] is given as 0. Moreover, the “HepSE_elevated liver function tests” value in data set [5] turned out to be 0. The compound further had a HepSE_liver fatty in data set [6] of 0. Also, the “HepSE_Combined Scores” value in data set [7] amounted to 4. For the same compound, the HepSE_jaundice in [8] was 1. In [9], this compound registered a HepSE_hepatic failure of 1. The HepSE_cholecystitis in data set [10] was 0. Further, the “HepSE_liver function tests abnormal” value in data set [11] came to 0. In data set [12], this compound yielded a HepSE_hepatitis of 1. In data set [13], this compound yielded a HepSE_cholelithiasis of 0. Moreover, in data set [14], the HepSE_hepatomegaly was determined as 0.

The values above are taken from ChEMBL document CHEMBL1909294, “Translating clinical findings into knowledge in drug safety evaluation--drug induced liver injury prediction system (DILIps)” (PLoS Comput Biol, 2011).
